According to ChEMBL document CHEMBL1141903, “Synthesis and evaluation of CCR5 antagonists containing modified 4-piperidinyl-2-phenyl-1-(phenylsulfonylamino)-butane” (Bioorg Med Chem Lett, 2005):

Tests used:
[1] = target: C-C chemokine receptor type 5 (Homo sapiens, UniProt P51681); experiment: Inhibitory concentration against human C-C chemokine receptor type 5 in CHO cells with [125I]-MIP-1 alpha radioligand; format: cell-based
[2] = tested on: Human immunodeficiency virus 1; experiment: Antiviral activity in an in vitro HIV replication assay; format: functional, organism-based

C-C chemokine receptor type 5, sequence (P51681 whole entry): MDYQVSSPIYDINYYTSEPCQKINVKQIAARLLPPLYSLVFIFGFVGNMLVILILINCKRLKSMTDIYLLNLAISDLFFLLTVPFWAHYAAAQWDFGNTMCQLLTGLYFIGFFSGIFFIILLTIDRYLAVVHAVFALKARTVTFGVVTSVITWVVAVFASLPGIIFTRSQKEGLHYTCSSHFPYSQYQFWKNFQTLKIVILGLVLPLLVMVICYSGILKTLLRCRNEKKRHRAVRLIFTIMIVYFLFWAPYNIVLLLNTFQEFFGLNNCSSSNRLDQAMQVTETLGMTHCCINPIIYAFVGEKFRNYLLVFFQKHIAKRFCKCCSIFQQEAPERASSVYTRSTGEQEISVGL

IC50 [1] [nM] | IC90 ([2]; Human immunodeficiency virus 1) [nM] | IC90 [2] [nM] | Compound
31.9 |  |  | CN(C[C@@H](CCN1CCC(N2C[C@@H](c3ccccc3)OC2=O)CC1)c1ccccc1)S(=O)(=O)c1ccccc1
350 |  |  | C[C@@H]1[C@@H](c2ccccc2)OC(=O)N1C1CCN(CC[C@H](CN(C)S(=O)(=O)c2ccccc2)c2ccccc2)CC1
28 | > 300 |  | CN1C(=O)CCC2CN(CC[C@](C)(CN(C)S(=O)(=O)c3ccccc3)c3ccccc3)CCC21 (mixture of isomers)
3.6 | 111 |  | CN(C[C@](C)(CCN1CCC2C(CCN2C(=O)OCc2ccc([N+](=O)[O-])cc2)C1)c1ccccc1)S(=O)(=O)c1ccccc1 (mixture of isomers)
1 | 3 |  | C=CCN(C(=O)OCc1ccc([N+](=O)[O-])cc1)C1CCN(CC[C@](C)(CN(C)S(=O)(=O)c2ccccc2)c2ccccc2)CC1
> 2000 |  |  | CN(CC(C)(CCN1CCC2C(CCN2C(=O)OC(C)(C)C)C1)c1ccccc1)S(=O)(=O)c1ccccc1 (single isomer, unassigned; isomer A)
2 | 100 |  | CN(CC(C)(CCN1CCC2C(CCN2C(=O)OC(C)(C)C)C1)c1ccccc1)S(=O)(=O)c1ccccc1 (single isomer, unassigned; isomer B)
6.4 | 111 |  | CN(C[C@@](C)(CCN1CCC2C(CCN2C(=O)Cc2ccccc2)C1)c1ccccc1)S(=O)(=O)c1ccccc1 (mixture of isomers)
> 2000 |  |  | CN(C[C@@](C)(CCN1CCC2NCCC2C1)c1ccccc1)S(=O)(=O)c1ccccc1 (mixture of isomers)
10 | 333 |  | CN(C[C@@](C)(CCN1CCC2C(CCC(=O)N2Cc2ccccc2)C1)c1ccccc1)S(=O)(=O)c1ccccc1 (some centres undefined)
36.7 |  |  | C[C@H]1[C@@H](c2ccccc2)OC(=O)N1C1CCN(CC[C@H](CN(C)S(=O)(=O)c2ccccc2)c2ccccc2)CC1
2 |  | 33 | CN(CC(C)(CCN1CCC2C(CCN2C(=O)OCc2ccc([N+](=O)[O-])cc2)C1)c1ccccc1)S(=O)(=O)c1ccccc1 (single isomer, unassigned; isomer B)
16 |  |  | CN(C[C@@H](CCN1CCC2C(CCN2C(=O)OC(C)(C)C)C1)c1ccccc1)S(=O)(=O)c1ccccc1 (some centres undefined)
> 100 |  |  | CN(C[C@@H](CCN1CCC(N2C[C@H](c3ccccc3)OC2=O)CC1)c1ccccc1)S(=O)(=O)c1ccccc1
5.3 | 333 |  | CN(C[C@@](C)(CCN1CCC2C(CCC(=O)N2Cc2ccc([N+](=O)[O-])cc2)C1)c1ccccc1)S(=O)(=O)c1ccccc1 (mixture of isomers)
9 | > 300 |  | CN(C[C@@](C)(CCN1CCC2C(CCN2C(=O)OCc2ccccc2)C1)c1ccccc1)S(=O)(=O)c1ccccc1 (mixture of isomers)
11 | 111 |  | CN(C[C@@](C)(CCN1CCC2C(CCN2C(=O)OC(C)(C)C)C1)c1ccccc1)S(=O)(=O)c1ccccc1 (mixture of isomers)
21 |  | 300 | CN(CC(C)(CCN1CCC2C(CCN2C(=O)OCc2ccc([N+](=O)[O-])cc2)C1)c1ccccc1)S(=O)(=O)c1ccccc1 (single isomer, unassigned; isomer A)
